The NIST ThermoML archive (doi:10.1021/je060271a)

Details: 323.15 K, Liquid, Vibrating tube method

CCCCCCC(=O)OCC(COC(=O)CCCCCC)(COC(=O)CCCCCC)COC(=O)CCCCCC [pentaerythritol tetraheptanoate]
Details	mass density [kg/m3]
19064 kPa	968.1
19081 kPa	968
19096 kPa	968.1
19124 kPa	968
19140 kPa	968.1
19154 kPa	968.1
19168 kPa	968.1
19182 kPa	968.1
19199 kPa	968.2
19213 kPa	968.2
19228 kPa	968.1
19245 kPa	968.2
19259 kPa	968.2
19273 kPa	968.3
19289 kPa	968.3
19303 kPa	968.3
19320 kPa	968.2
19334 kPa	968.3
19351 kPa	968.3
19366 kPa	968.3
19380 kPa	968.2
19394 kPa	968.4
19411 kPa	968.4
19425 kPa	968.4
19440 kPa	968.3
19457 kPa	968.3
19472 kPa	968.4
19489 kPa	968.3
19503 kPa	968.3
19564 kPa	968.3
19579 kPa	968.3
19597 kPa	968.4
19611 kPa	968.4
19629 kPa	968.5
19644 kPa	968.5
19659 kPa	968.5
19674 kPa	968.5
19688 kPa	968.5
19706 kPa	968.5
19721 kPa	968.5
19738 kPa	968.5
19754 kPa	968.6
19769 kPa	968.5
19787 kPa	968.5
19802 kPa	968.5
19816 kPa	968.5
19834 kPa	968.5
19850 kPa	968.5
19864 kPa	968.6
19882 kPa	968.7
19898 kPa	968.5
19913 kPa	968.7
19928 kPa	968.6
19947 kPa	968.6
19977 kPa	968.5
19995 kPa	968.5
20026 kPa	968.6
20044 kPa	968.7
20059 kPa	968.7
20075 kPa	968.6
20094 kPa	968.8
20109 kPa	968.7
20125 kPa	968.8
20141 kPa	968.8
20159 kPa	968.8
20175 kPa	968.9
20193 kPa	968.8
20209 kPa	968.9
20224 kPa	968.8
20240 kPa	968.9
20258 kPa	969
20274 kPa	968.8
20293 kPa	968.9
20309 kPa	968.8
20325 kPa	968.8
20344 kPa	968.9
20359 kPa	968.9
20375 kPa	968.9
20390 kPa	968.9
20410 kPa	968.9
20426 kPa	969
20444 kPa	969
20460 kPa	969
20476 kPa	968.9
20496 kPa	969
20512 kPa	969
20528 kPa	969
20544 kPa	969
20564 kPa	969.1
20580 kPa	969
20596 kPa	969
20631 kPa	969.1
20648 kPa	969
20667 kPa	969.1
20684 kPa	969.2
20700 kPa	969.1
20720 kPa	969.2
20737 kPa	969.1
20755 kPa	969.2
20771 kPa	969.1
20791 kPa	969.2
20808 kPa	969.1
20824 kPa	969.2
20841 kPa	969.2
20861 kPa	969.3
20877 kPa	969.3
20894 kPa	969.3
20914 kPa	969.2
20931 kPa	969.3
20985 kPa	969.2
21022 kPa	969.1
21039 kPa	969.4
